Species on record: Rattus norvegicus
Assay: DrugMatrix - Regimen: Daily Repeat
Type: toxicity, organism-based, Sprague-Dawley
Design: regimen Daily Repeat, gender Male, age 6-8 weeks
Settings: in vivo, po, route oral GAVAGE, vehicle 100 % SALINE; for ABSOLUTE BASOPHIL / ABSOLUTE EOSINOPHIL / ABSOLUTE LYMPHOCYTE / ABSOLUTE MONOCYTE / ABSOLUTE SEGMENTED NEUTROPHIL / BASOPHIL / EOSINOPHIL / ERYTHROCYTE COUNT / HEMATOCRIT / HEMOGLOBIN / LEUKOCYTE COUNT / LYMPHOCYTE / MEAN CORPUSCULAR HEMOGLOBIN / MEAN CORPUSCULAR HEMOGLOBIN CONCENTRATION / MEAN CORPUSCULAR VOLUME / MONOCYTE / NEUTROPHIL / NUCLEATED RED BLOOD CELLS / PLATELET COUNT: tissue Blood; for ALANINE AMINOTRANSFERASE / ALBUMIN / ALKALINE PHOSPHATASE / ASPARTATE AMINOTRANSFERASE / BLOOD UREA NITROGEN / CARBON DIOXIDE / CHLORIDE / CHOLESTEROL / CREATINE PHOSPHOKINASE / CREATININE / GLUCOSE / LACTATE DEHYDROGENASE / LIPASE / PHOSPHORUS / POTASSIUM / SODIUM / TOTAL BILIRUBIN / TOTAL PROTEIN / URIC ACID: tissue Plasma
[1] = 11 mg/kg, 120 h, dose level High, time 5 day
[2] = […], 72 h, dose 2.8 mg/Kg, dose level Low, time 3 day
[3] = […], 120 h, dose 2.8 mg/Kg, dose level Low, time 5 day

Cc1cc(CC(=O)O)n(C)c1C(=O)c1ccc(Cl)cc1 [ZOMEPIRAC]
ABSOLUTE BASOPHIL [1]: 0 CELLS/uL
ABSOLUTE EOSINOPHIL [1]: 95 CELLS/uL
ABSOLUTE LYMPHOCYTE [1]: 12621.33 CELLS/uL
ABSOLUTE MONOCYTE [1]: 94.67 CELLS/uL
ABSOLUTE SEGMENTED NEUTROPHIL [1]: 855.67 CELLS/uL
BASOPHIL [1]: 0%
EOSINOPHIL [1]: 0.67%
ERYTHROCYTE COUNT [1]: 5.5 x10E6/uL
HEMATOCRIT [1]: 34.03%
HEMOGLOBIN [1]: 13.2 G/DL
LEUKOCYTE COUNT [1]: 13.67 x10E3/uL
LYMPHOCYTE [1]: 92.33%
MEAN CORPUSCULAR HEMOGLOBIN [1]: 24.13 pg
MEAN CORPUSCULAR HEMOGLOBIN CONCENTRATION [1]: 38.87 G/DL
MEAN CORPUSCULAR VOLUME [1]: 62.1 fL
MONOCYTE [1]: 0.67%
NEUTROPHIL [1]: 6.33%
NUCLEATED RED BLOOD CELLS [1]: 0 /100WBC
PLATELET COUNT [1]: 1240 x10E3/uL
ALANINE AMINOTRANSFERASE [1]: 49.33 u/L
ALBUMIN [1]: 3.77 G/DL
ALKALINE PHOSPHATASE [1]: 252.67 u/L
ASPARTATE AMINOTRANSFERASE [1]: 97.67 u/L
BLOOD UREA NITROGEN [1]: 15.67 mg/dL
CARBON DIOXIDE [1]: 24 mmol/L
CHLORIDE [1]: 105.33 MEQ/L
CHOLESTEROL [1]: 76.67 mg/dL
CREATINE PHOSPHOKINASE [1]: 395.67 u/L
CREATININE [1]: 0.17 mg/dL
GLUCOSE [1]: 143.33 mg/dL
LACTATE DEHYDROGENASE [1]: 595 u/L
LIPASE [1]: 8.67 u/L
PHOSPHORUS [1]: 11.83 mg/dL
POTASSIUM [1]: 6.93 MEQ/L
SODIUM [1]: 148.57 MEQ/L
TOTAL BILIRUBIN [1]: 0.13 mg/dL
TOTAL PROTEIN [1]: 5.87 G/DL
URIC ACID [1]: 2.33 mg/dL
ABSOLUTE BASOPHIL [2]: 0 CELLS/uL
ABSOLUTE EOSINOPHIL [2]: 111.67 CELLS/uL
ABSOLUTE LYMPHOCYTE [2]: 15209 CELLS/uL
ABSOLUTE MONOCYTE [2]: 151.67 CELLS/uL
ABSOLUTE SEGMENTED NEUTROPHIL [2]: 1061 CELLS/uL
BASOPHIL [2]: 0%
EOSINOPHIL [2]: 0.67%
ERYTHROCYTE COUNT [2]: 5.59 x10E6/uL
HEMATOCRIT [2]: 34.1%
HEMOGLOBIN [2]: 13.53 G/DL
LEUKOCYTE COUNT [2]: 16.53 x10E3/uL
LYMPHOCYTE [2]: 91.33%
MEAN CORPUSCULAR HEMOGLOBIN [2]: 24.2 pg
MEAN CORPUSCULAR HEMOGLOBIN CONCENTRATION [2]: 39.7 G/DL
MEAN CORPUSCULAR VOLUME [2]: 60.97 fL
MONOCYTE [2]: 1%
NEUTROPHIL [2]: 7%
NUCLEATED RED BLOOD CELLS [2]: 0 /100WBC
PLATELET COUNT [2]: 1145.33 x10E3/uL
ALANINE AMINOTRANSFERASE [2]: 50.67 u/L
ALBUMIN [2]: 4 G/DL
ALKALINE PHOSPHATASE [2]: 259 u/L
ASPARTATE AMINOTRANSFERASE [2]: 76.67 u/L
BLOOD UREA NITROGEN [2]: 14.67 mg/dL
CARBON DIOXIDE [2]: 23 mmol/L
CHLORIDE [2]: 102 MEQ/L
CHOLESTEROL [2]: 65.33 mg/dL
CREATINE PHOSPHOKINASE [2]: 362.33 u/L
CREATININE [2]: 0.2 mg/dL
GLUCOSE [2]: 180 mg/dL
LACTATE DEHYDROGENASE [2]: 137 u/L
LIPASE [2]: 12.33 u/L
PHOSPHORUS [2]: 13.07 mg/dL
POTASSIUM [2]: 6.11 MEQ/L
SODIUM [2]: 141.93 MEQ/L
TOTAL BILIRUBIN [2]: 0.2 mg/dL
TOTAL PROTEIN [2]: 5.77 G/DL
URIC ACID [2]: 1.6 mg/dL
ABSOLUTE BASOPHIL [3]: 0 CELLS/uL
ABSOLUTE EOSINOPHIL [3]: 70.67 CELLS/uL
ABSOLUTE LYMPHOCYTE [3]: 13627.67 CELLS/uL
ABSOLUTE MONOCYTE [3]: 0 CELLS/uL
ABSOLUTE SEGMENTED NEUTROPHIL [3]: 1235 CELLS/uL
BASOPHIL [3]: 0%
EOSINOPHIL [3]: 0.33%
ERYTHROCYTE COUNT [3]: 5.81 x10E6/uL
HEMATOCRIT [3]: 35.67%
HEMOGLOBIN [3]: 14.07 G/DL
LEUKOCYTE COUNT [3]: 14.93 x10E3/uL
LYMPHOCYTE [3]: 91.33%
MEAN CORPUSCULAR HEMOGLOBIN [3]: 24.23 pg
MEAN CORPUSCULAR HEMOGLOBIN CONCENTRATION [3]: 39.47 G/DL
MEAN CORPUSCULAR VOLUME [3]: 61.53 fL
MONOCYTE [3]: 0%
NEUTROPHIL [3]: 8.33%
NUCLEATED RED BLOOD CELLS [3]: 0 /100WBC
PLATELET COUNT [3]: 1274.67 x10E3/uL
ALANINE AMINOTRANSFERASE [3]: 59.33 u/L
ALBUMIN [3]: 4.17 G/DL
ALKALINE PHOSPHATASE [3]: 331 u/L
ASPARTATE AMINOTRANSFERASE [3]: 103.33 u/L
BLOOD UREA NITROGEN [3]: 16.33 mg/dL
CARBON DIOXIDE [3]: 22.67 mmol/L
CHLORIDE [3]: 104.67 MEQ/L
CHOLESTEROL [3]: 64.33 mg/dL
CREATINE PHOSPHOKINASE [3]: 532.33 u/L
CREATININE [3]: 0.2 mg/dL
GLUCOSE [3]: 159.67 mg/dL
LACTATE DEHYDROGENASE [3]: 749.67 u/L
LIPASE [3]: 10 u/L
PHOSPHORUS [3]: 12.53 mg/dL
POTASSIUM [3]: 6.9 MEQ/L
SODIUM [3]: 147.37 MEQ/L
TOTAL BILIRUBIN [3]: 0.2 mg/dL
TOTAL PROTEIN [3]: 6.2 G/DL
URIC ACID [3]: 2 mg/dL

— ChEMBL document CHEMBL3885881, “DrugMatrix”
